Source: PMC11769294, “(E)-1-(3-(3-Hydroxy-4-Methoxyphenyl)-1-(3,4,5-Trimethoxyphenyl)allyl)-1H-1,2,4-Triazole and Related Compounds: Their Synthesis and Biological Evaluation as Novel Antimitotic Agents Targeting Breast Cancer” (Pharmaceuticals, 2025)
Several values for one entry are separate records, joined by “and”; a condition that tells them apart may be missing. Identical values can stand only once. Like-named read-outs stand apart in the source and are kept apart here.

Key:
Type in all cases: cell-based, human
[1] = system: NCI 60 cancer cell line panel; assay: NCI60 screen (SRB), all cell lines; conditions: for mean growth percent: over the 60-cell line panel, one dose 10 µM
[2] = system: MCF7 (Breast Cancer); assay: NCI60 screen (SRB); conditions: 48 h; for growth percent: one dose 10 µM
[3] = system: HCT-15 (Colon Cancer); assay: NCI60 screen (SRB); conditions: 48 h; for growth percent: one dose 10 µM
[4] = system: SNB-75 (CNS Cancer); assay: NCI60 screen (SRB); conditions: 48 h; for growth percent: one dose 10 µM
[5] = system: MDA-MB-231/ATCC (Breast Cancer); assay: NCI60 screen (SRB); conditions: 48 h; for growth percent: one dose 10 µM
[6] = system: SNB-19 (CNS Cancer); assay: NCI60 screen (SRB); conditions: 48 h; for growth percent: one dose 10 µM
[7] = system: SK-MEL-2 (Melanoma); assay: NCI60 screen (SRB); conditions: 48 h; for growth percent: one dose 10 µM
[8] = system: UACC-62 (Melanoma); assay: NCI60 screen (SRB); conditions: 48 h; for growth percent: one dose 10 µM
[9] = system: HCC-2998 (Colon Cancer); assay: NCI60 screen (SRB); conditions: 48 h; for growth percent: one dose 10 µM
[10] = system: MALME-3M (Melanoma); assay: NCI60 screen (SRB); conditions: 48 h; for growth percent: one dose 10 µM
[11] = system: MDA-MB-468 (Breast Cancer); assay: NCI60 screen (SRB); conditions: 48 h; for growth percent: one dose 10 µM
[12] = system: A498 (Renal Cancer); assay: NCI60 screen (SRB); conditions: 48 h; for growth percent: one dose 10 µM
[13] = system: SR (Leukemia); assay: NCI60 screen (SRB); conditions: 48 h; for growth percent: one dose 10 µM
[14] = system: SF-539 (CNS Cancer); assay: NCI60 screen (SRB); conditions: 48 h; for growth percent: one dose 10 µM
[15] = system: HL-60 (TB) (Leukemia); assay: NCI60 screen (SRB); conditions: for growth percent: HL-60 (TB), one dose 10 µM; for GI50: HL-60(TB), five-dose
[16] = system: SF-295 (CNS Cancer); assay: NCI60 screen (SRB); conditions: 48 h; for growth percent: one dose 10 µM
[17] = system: U251 (CNS Cancer); assay: NCI60 screen (SRB); conditions: 48 h; for growth percent: one dose 10 µM
[18] = system: KM12 (Colon Cancer); assay: NCI60 screen (SRB); conditions: 48 h; for growth percent: one dose 10 µM
[19] = system: leukemia panel; assay: NCI60 screen (SRB), panel mean; conditions: one dose 10 µM, 48 h
[20] = system: TK-10 (Renal Cancer); assay: NCI60 screen (SRB); conditions: 48 h; for growth percent: one dose 10 µM
[21] = system: CAKI-1 (Renal Cancer); assay: NCI60 screen (SRB); conditions: 48 h; for growth percent: one dose 10 µM
[22] = Homo sapiens, five-dose, read-out: IC50 (cell marked * in GI50 column)
[23] = Homo sapiens, five-dose, read-out: IC50 (cell marked * in GI50 column) (converted)

In the case of `COc1ccc(/C=C/C(c2cc(OC)c(OC)c(OC)c2)n2cncn2)cc1` (stereo not drawn) [Compound 22a, (E)-1-(3-(4-Methoxyphenyl)-1-(3,4,5-trimethoxyphenyl)allyl)-1H-1,2,4-triazole], the mean growth percent ([1]; 48 h) is reported as 41.9%, the growth percent [2] is reported as 22.5% and 22.48% and the growth percent [3] is reported as 31.14%. It also gave a growth percent [4] of 51.27%, a growth percent [5] of 50.05% and a growth percent [6] of 49.01%. It also gave a growth percent [7] of 12.89%, a growth percent [8] of 33.84% and a growth percent [9] of 84.15%. The growth percent [10] was 61.34%, the growth percent [11] was 40.88% and the growth percent [12] was 36.38%. The growth percent [13] was 18.93%, the growth percent [14] was 56.52% and the growth percent ([15]; 48 h) was −17.94%. The growth percent [16] was 22.52%, the growth percent [17] was 31.77% and the growth percent [18] was 30.66%. The mean growth percentage [19] was 24.0%, the growth percent [20] was 48.52% and the growth percent [21] was 51.61%.
Work on `COc1ccc(/C=C/C(c2cc(OC)c(OC)c(OC)c2)n2cncn2)cc1O` (stereo not drawn) [Compound 22b, (E)-5-(3-(1H-1,2,4-Triazol-1-yl)-3-(3,4,5-trimethoxyphenyl)prop-1-en-1-yl)-2-methoxyphenol] yielded a GI50 ([1]; Homo sapiens, 48 h, five-dose, 48 h, read-out: MG-MID (mean of GI50 values over all cell lines)) of 371 nM, a GI50 ([1]; Homo sapiens, Figure 8, concentration in molar, read-out: Log 10 GI-50 Mean (converted)) of 2140 nM and an IC50 ([1]; Homo sapiens, Figure 8, concentration in molar, read-out: Log 10 IC-50 Mean (converted)) of 2880 nM. For the same molecule, the LC50 (50% lethal concentration) ([1]; Homo sapiens, over all 60 cell lines, five-dose) was > 100 µM, the GI50 ([1]; five-dose, 48 h, read-out: MG-MID (mean of GI50 values over all cell lines)) was 372 nM and the “TGI (total growth inhibition)” value ([1]; over all 60 cell lines, five-dose) was 57.5 µM. The mean growth percent ([1]; 48 h) was 29.9%, the GI50 ([2]; Homo sapiens, five-dose) was 33 nM and the growth percent [2] was 21.2% and 21.22%. For the same molecule, the GI50 ([3]; Homo sapiens, five-dose) was 50.8 nM, the growth percent [3] was 16.53% and the IC50 [4, 22] was > 100 µM. It also gave a growth percent [4] of 40.99%, a GI50 ([5]; Homo sapiens, five-dose) of 3.02 µM and an IC50 [6, 23] of 25.7 µM. The growth percent [6] was 34.19%, the GI50 ([7]; Homo sapiens, five-dose) was 43.8 nM and the growth percent [7] was 18.23%. It also gave a GI50 ([8]; Homo sapiens, five-dose) of 47.6 nM, a growth percent [8] of 37.50% and a GI50 ([9]; Homo sapiens, five-dose) of 3000 nM. The growth percent [9] was 67.70%, the IC50 [10, 22] was > 100 µM and the growth percent [10] was 54.35%. For the same molecule, the IC50 [11, 22] was > 100 µM, the growth percent [11] was 8.27% and the GI50 ([12]; Homo sapiens, five-dose) was 3.13 µM. For the same molecule, the growth percent [12] was 19.81%, the GI50 ([13]; Homo sapiens, five-dose) was 24.8 nM and the growth percent [13] was 5.67%. It also gave a GI50 ([14]; Homo sapiens, five-dose) of 26.7 nM, a growth percent [14] of −4.58% and a GI50 ([15]; 48 h) of 24.5 nM. For the same molecule, the growth percent ([15]; 48 h) was −36.28%, the GI50 ([15]; Homo sapiens, HL-60, 48 h) was 24 nM and the IC50 [16, 23] was 3.72 µM. The growth percent [16] was 1.43%, the GI50 ([17]; Homo sapiens, U-251, five-dose) was 50.6 nM and the growth percent [17] was 20.72%. For the same molecule, the GI50 ([18]; Homo sapiens, five-dose) was 40.5 nM, the growth percent [18] was 26.67% and the mean growth percentage [19] was 4.2%. It also gave a GI50 ([20]; Homo sapiens, five-dose) of 21.2 µM, a growth percent [20] of 41.24% and a GI50 ([21]; Homo sapiens, five-dose) of 2830 nM. For the same molecule, the growth percent [21] was 34.50%.
`COc1ccc(/C=C/C(c2cc(OC)c(OC)c(OC)c2)n2ccnc2)cc1O` (stereo not drawn) [Compound 23b, (E)-5-(3-(1H-Imidazol-1-yl)-3-(3,4,5-trimethoxyphenyl)prop-1-en-1-yl)-2-methoxyphenol] was tested, and the mean growth percent ([1]; 48 h) was 39.7%, the growth percent [2] was 17.9% and 17.87% and the growth percent [3] was 24.91%. The growth percent [4] was 20.04%, the growth percent [5] was 53.0% and 52.97% and the growth percent [6] was 47.27%. For the same molecule, the growth percent [7] was 41.65%, the growth percent [8] was 36.37% and the growth percent [9] was 76.97%. For the same molecule, the growth percent [10] was 57.72%, the growth percent [11] was 40.60% and the growth percent [12] was 67.46%. It also gave a growth percent [13] of 6.18%, a growth percent [14] of 23.09% and a growth percent ([15]; 48 h) of −36.59%. The growth percent [16] was 16.59%, the growth percent [17] was 27.12% and the growth percent [18] was 29.04%. The mean growth percentage [19] was 11.2%, the growth percent [20] was 84.45% and the growth percent [21] was 60.21%.
In the case of `COc1ccc(C2CC(n3ccnc3)c3cc(OC)c(OC)c(OC)c32)cc1O` (stereo not drawn) [Compound 27a, 5-(3-(1H-Imidazol-1-yl)-5,6,7-trimethoxy-2,3-dihydro-1H-inden-1-yl)-2-methoxyphenol], the mean growth percent ([1]; 48 h) is reported as 79.2%, the growth percent [2] is reported as 44.8% and 44.77% and the growth percent [3] is reported as 59.92%. It also gave a growth percent [4] of 90.16%, a growth percent [5] of 81.01% and a growth percent [6] of 93.73%. The growth percent [7] was 89.63%, the growth percent [8] was 65.53% and the growth percent [9] was 99.22%. It also gave a growth percent [10] of 73.18%, a growth percent [11] of 78.64% and a growth percent [12] of 88.34%. For the same molecule, the growth percent [13] was 35.42%, the growth percent [14] was 89.80% and the growth percent ([15]; 48 h) was 83.57%. The growth percent [16] was 57.51%, the growth percent [17] was 80.36% and the growth percent [18] was 50.59%. The mean growth percentage [19] was 73.2%, the growth percent [20] was 101.23% and the growth percent [21] was 74.50%.
In the case of `COc1cc(/C=C/C(/C=C/c2cc(OC)c(OC)c(OC)c2)n2ccnc2)cc(OC)c1OC` [Compound 30, 1-((1E,4E)-1,5-bis(3,4,5-trimethoxyphenyl)penta-1,4-dien-3-yl)-1H-imidazole], the mean growth percent ([1]; 48 h) is reported as 81.3%, the growth percent [2] is reported as 57.42% and the growth percent [3] is reported as 77.23%. The growth percent [4] was 54.99%, the growth percent [5] was 76.21% and the growth percent [6] was 89.08%. The growth percent [7] was 81.02%, the growth percent [8] was 68.23% and the growth percent [9] was 99.87%. It also gave a growth percent [10] of 93.80%, a growth percent [11] of 57.22% and a growth percent [12] of 104.55%. For the same molecule, the growth percent [13] was 31.50%, the growth percent [14] was 93.55% and the growth percent ([15]; 48 h) was 70.60%. It also gave a growth percent [16] of 95.73%, a growth percent [17] of 81.64% and a growth percent [18] of 82.35%. The mean growth percentage [19] was 60.5% and the growth percent [20] was 115.50%.
